The values that follow come from US4696929A, “Derivative of piperazine having anti-allergic and anti-inflammatory action” (Taiho Pharmaceutical Company, Limited, priority 1984, dated 1987).

One assay relates to lipoxygenase. The note with it: background art; cited from earlier work.
The subject of the next assay is cyclooxygenase. As to conditions: background art; cited from earlier work.
The target of another assay is T1, 5-lipoxygenase (Cavia porcellus, UniProt A0A286X958).
T1 construct: 105,000×g for 60 min to obtain the cytosol fraction; endogenous in cells; host or cells: casein-elicited peritoneal polymorphonuclear leukocytes of male Hartley guinea pigs, 105,000×g cytosol fraction
T1 sequence (A0A286X958 1-674): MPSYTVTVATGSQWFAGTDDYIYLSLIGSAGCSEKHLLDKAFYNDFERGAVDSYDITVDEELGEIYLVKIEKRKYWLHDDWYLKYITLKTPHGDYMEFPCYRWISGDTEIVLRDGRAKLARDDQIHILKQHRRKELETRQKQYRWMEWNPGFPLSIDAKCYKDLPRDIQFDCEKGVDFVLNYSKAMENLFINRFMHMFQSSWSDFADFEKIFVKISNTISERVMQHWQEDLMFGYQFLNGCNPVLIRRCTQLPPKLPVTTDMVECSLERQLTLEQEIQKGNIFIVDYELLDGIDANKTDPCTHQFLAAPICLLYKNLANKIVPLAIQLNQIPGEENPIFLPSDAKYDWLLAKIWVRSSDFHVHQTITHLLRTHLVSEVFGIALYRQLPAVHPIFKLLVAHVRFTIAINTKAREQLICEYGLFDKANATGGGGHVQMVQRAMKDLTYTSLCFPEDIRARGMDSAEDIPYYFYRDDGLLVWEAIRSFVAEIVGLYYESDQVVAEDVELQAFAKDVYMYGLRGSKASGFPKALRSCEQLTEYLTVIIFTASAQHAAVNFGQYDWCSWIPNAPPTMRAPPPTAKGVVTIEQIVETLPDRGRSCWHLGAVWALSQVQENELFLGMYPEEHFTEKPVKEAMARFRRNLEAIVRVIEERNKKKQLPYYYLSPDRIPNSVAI
Nature of the assay: Assay of 5-lipoxygenase (PMNL cytosol fraction, 5-HETE formation). The format is biochemical, guinea pig (male Hartley strain). The note with it: 3 min pre-incubation, then [1-14C]arachidonic acid 5 min, 37° C., 1% DMSO, 5-HETE counted. The method, then:
Assay of 5-lipoxygenase […] Male Hartley strain guinea pigs weighing 580~740 g received intraperitoneal injection of 2% casein in saline (5 ml/100 g body weight). After 16~18 hr, the guinea pigs were sacrificed by bleeding from the carotid artery. Then 50 ml of Dulbecco's phosphate-buffered saline (PBS(-)) containing 5 units/ml of heparin were injected into the peritoneal cavity and peritoneal exudate was collected. The exudate was combined and filtered through 4 layers of cheese cloth, followed by centrifugation at 1,000 rpm for 10 min. Cell pellets were suspended in small amounts of PBS(-) and treated 3 volumes of 0.2% NaCl to lyse contamination red blood cells. The cells (80% or more PMNL as identified by Wright-Giemsa stain) were washed twice with buffer A (130 mM NaCl, 25 mM phosphate, pH 7.4, 1 mM EDTA). The washed cells (1×10^8 cells/ml) were resuspended in 50 mM phosphate (pH 7.4) containing 1 mM EDTA and 0.1% gelatin, sonicated and centrifuged at 10,000×g for 20 min. The supernatant solution was further centrifuged at 105,000×g for 60 min to obtain the cytosol fraction. Enzyme assays Test compounds were dissolved in dimethyl sulfoxide (DMSO), and the final concentration of DMSO was kept at 1% in each experiment. […] Each reaction was terminated by precipitating the proteins with 1 ml acetone and added 0.5 ml ice-cold saline. The pH was adjusted to about 3 with 150 μl 2N formic acid. The mixture was extracted twice with 2 ml chloroform. […] Radioactive zone of 5-HETE [5(S)-hydroxy-6,8,11,14-eicosatetraenoic acid] was detected by autoradiography, scraped from the TLC plates, and counted by a liquid scintillation counter. IC50 (50% Inhibition Concentration) value indicates the concentration to decrease the enzymatic product by 50% as compared to that of vehicle-treated control.

The target of a further assay is T2, platelet cyclooxygenase (Oryctolagus cuniculus, UniProt O97554).
T2 construct: 1 ml of intact washed platelet suspensions were pre-incubated with test compounds; endogenous in cells; host or cells: intact washed platelets of male New Zealand White rabbits
T2 sequence (O97554 31-606): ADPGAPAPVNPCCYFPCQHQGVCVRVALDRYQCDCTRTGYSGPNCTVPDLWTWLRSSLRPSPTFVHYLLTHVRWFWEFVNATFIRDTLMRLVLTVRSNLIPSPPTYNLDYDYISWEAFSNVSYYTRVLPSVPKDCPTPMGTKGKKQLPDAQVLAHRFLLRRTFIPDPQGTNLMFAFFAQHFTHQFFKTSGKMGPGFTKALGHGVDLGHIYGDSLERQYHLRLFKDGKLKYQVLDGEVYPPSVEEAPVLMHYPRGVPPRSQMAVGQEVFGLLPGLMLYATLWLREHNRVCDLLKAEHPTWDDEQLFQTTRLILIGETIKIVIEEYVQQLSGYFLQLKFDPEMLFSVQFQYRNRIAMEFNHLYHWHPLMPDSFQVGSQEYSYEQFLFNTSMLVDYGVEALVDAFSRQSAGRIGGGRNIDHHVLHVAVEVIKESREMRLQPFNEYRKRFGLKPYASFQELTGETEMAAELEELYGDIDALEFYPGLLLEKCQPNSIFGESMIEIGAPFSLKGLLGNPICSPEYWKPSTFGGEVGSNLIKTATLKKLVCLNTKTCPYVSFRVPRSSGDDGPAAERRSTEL
Nature of the assay: Assay of platelet cyclooxygenase (intact washed platelets, TXB2 formation). Type of assay: cell-based, rabbit (male New Zealand White). As to conditions: 3 min pre-incubation, then [1-14C]arachidonic acid 5 min, 37° C., TXB2 counted. The method, then:
Assay of platelet cyclooxygenase
Preparation of washed platelet
Citrated blood (blood/3.8% sodium citrate=9:1 by volume) was obtained by heart-puncture from male New Zealand White rabbits weighing 3.21~4.75 kg and centrifuged at 1,000 rpm for 10 min. The platelet-rich plasma (the supernatant layer: PRP) was further centrifuged at 3,000 rpm for 10 min, and the resulting platelet was washed twice with buffer A (130 mM NaCl, 25 mM phosphate, pH 7.4, 1 mM EDTA). The washed platelets were resuspended in 50 mM phosphate (pH 7.4) containing 1 mM EDTA and adjusted 1×10^8 platelets/ml.
For the platelet cyclooxygenase assays, 1 ml of intact washed platelet suspensions were pre-incubated with test compounds (dissolved in DMSO) in the presence of 1 mM GSH at 37° C. for 3 min, and then the mixture was incubated with [1-^14 C]arachidonic acid (0.1 μCi) at 37° C. for 5 min. Each reaction was terminated and extracted by the addition of 3 ml of ethyl acetate/methanol/1M citric acid (30:4:1, v/v). The organic layer was evaporated under a N2 gas stream, redissolved in 30 μl of chloroform/methanol (2:1, v/v), and applied 20 μl to Silica gel TLC plates, and developed in the solvent system chloroform/methanol/acetic acid/H2 O (90:8:1:0.8, v/v). Radioactive zone of TXB2 (Thromboxane B2) was detected by autoradiography, scraped from the TLC plates, and counted by a liquid scintillation counter. IC50 value indicates the concentration to decrease the enzymatic product by 50% as compared to that of vehicle-treated control.

Molecules are shown by their SMILES.

By IC50 is commonly meant the concentration that inhibits the measured activity by half. Higher therefore signals weaker potency in that assay. Take `CC(C(=O)O)c1ccc2oc(-c3ccc(Cl)cc3)nc2c1` (stereo not drawn) [Benoxaprofen, 2-(4-chlorophenyl)-α-methyl-5-benzoxazoleacetic acid]: the “lipoxygenase inhibition (in words)” value in the assay with lipoxygenase is given as “lipoxygenase-inhibiting actions”. Further, the “cyclooxygenase inhibition (in words)” value in the assay with cyclooxygenase was “cyclooxygenase-inhibiting”. In addition, the IC50 against 5-lipoxygenase was 24 µM.

Regarding `COc1ccc2c(c1)c(CC(=O)OC(CN1CCN(CCCO)CC1)c1ccccc1)c(C)n2C(=O)c1ccc(Cl)cc1` (stereo not shown) [Example 7, 2-{4-(3-hydroxypropyl)-1-piperazinyl}-1-phenylethyl 1-(p-clorobenzoyl)-5-methoxy-2-methyl-3-indoylacetate dimaleate], the IC50 against 5-lipoxygenase was 1.6 µM; against platelet cyclooxygenase, 20.4 µM.

Take `COc1ccc2c(c1)c(CC(=O)OC(C)CN1CCN(CCCO)CC1)c(C)n2C(=O)c1ccc(Cl)cc1` (stereo not shown) [Example 8, 2-{4-(3-hydroxypropyl)-1-piperazinyl}-1-methylethyl 1-(p-chlorobenzoyl)-5-methoxy-2-methyl-3-indoylacetate dimaleate]: the IC50 against 5-lipoxygenase is 6.9 µM; against platelet cyclooxygenase, 30.6 µM.

Turning to `COc1ccc2c(c1)c(CC(=O)OC(CN1CCN(CCO)CC1)c1ccccc1)c(C)n2C(=O)c1ccc(Cl)cc1` (stereo not shown) [Example 9, 2-{4-(2-hydroxyethyl)-1-piperazinyl}-1-phenylethyl 1-(p-chlorobenzoyl)-5-methoxy-2-methyl-3-indoylacetate dimaleate], the IC50 is 1.7 µM against 5-lipoxygenase and 9.2 µM against platelet cyclooxygenase.

For `COc1ccc2c(c1)c(CC(=O)OC(C)CN1CCN(CCCCCO)CC1)c(C)n2C(=O)c1ccc(Cl)cc1` (stereo not shown) [Example 10, 2-{4-(5-hydroxypentyl)-1-piperazinyl}-1-methylethyl 1-(p-chlorobenzoyl)-5-methoxy-2-methyl-3-indoylacetate dimaleate], the values for the IC50 against 5-lipoxygenase and against platelet cyclooxygenase were 6.2 µM and 22.8 µM, respectively.

Regarding `COc1ccc2c(c1)c(CC(=O)OC(C)CN1CCN(CCCCCCO)CC1)c(C)n2C(=O)c1ccc(Cl)cc1` (stereo not shown) [Example 11, 2-{4-(6-hydroxyhexyl)-1-piperazinyl}-1-methylethyl 1-(p-chlorobenzoyl)-5-methoxy-2-methyl-3-indoylacetate dimaleate], the IC50 was 4.7 µM against 5-lipoxygenase and 41.2 µM against platelet cyclooxygenase.

At 5-lipoxygenase, `COc1ccc2c(c1)c(CC(=O)OC(CN1CCN(CCCCCCCCCCO)CC1)c1ccccc1)c(C)n2C(=O)c1ccc(Cl)cc1` (stereo not shown) [Example 12, 2-{4-(10-hydroxydecyl)-1-piperazinyl}-1-phenylethyl 1-(p-chlorobenzoyl)-5-methoxy-2-methyl-3-indoylacetate dimaleate] registered an IC50 of 0.9 µM.

Consider `COc1ccc2c(c1)c(CC(=O)OC(C)(C)CN1CCN(CCCOC3CCCCO3)CC1)c(C)n2C(=O)c1ccc(Cl)cc1` (stereo not shown) [Example 13, 1-methyl-2-[4-{3-(2-tetrahydropyranyloxy)propyl}-1-piperazinyl]-2-methyl-2-propyl 1-(p-chlorobenzoyl)-5-methoxy-2-methyl-3-indoylacetate], for which the values for the IC50 at 5-lipoxygenase and on platelet cyclooxygenase were 4.7 µM and 22.3 µM, respectively.

Turning to `COc1ccc2c(c1)c(CC(=O)O)c(C)n2C(=O)c1ccc(Cl)cc1` [Indomethacin], the “lipoxygenase inhibition (in words)” value in the assay with lipoxygenase is on record as “does not inhibit lipoxygenase reaction”. In the assay with cyclooxygenase, the “cyclooxygenase inhibition (in words)” value is “has cyclooxygenase-inhibiting action”. On 5-lipoxygenase, this molecule yielded an IC50 of 242 µM.
